ChEMBL document CHEMBL2069184, “A Back-to-Front Fragment-Based Drug Design Search Strategy Targeting the DFG-Out Pocket of Protein Tyrosine Kinases” (ACS Med Chem Lett, 2012)
pIC50, pKi: −log10 of the molar value.

Legend:
[1] = target: T1, Vascular endothelial growth factor receptor 2 (Homo sapiens, UniProt P35968); conditions: 100 uM
[2] = target: T1, Vascular endothelial growth factor receptor 2; assay: Inhibition of human phosphorylated N-terminal-His6 tagged VEGFR2 catalytic domain using 5-FAM-EEPLYWSFPAKKK-CONH2 as substrate after 60 mins by mobility shift assay
[3] = target: T1, Vascular endothelial growth factor receptor 2; assay: Inhibition of human unphosphorylated N-terminal-His6 tagged VEGFR2 catalytic domain using 5-FAM-EEPLYWSFPAKKK-CONH2 as substrate after 60 mins by mobility shift assay

T1 sequence (P35968 whole entry, the tested form may be a part): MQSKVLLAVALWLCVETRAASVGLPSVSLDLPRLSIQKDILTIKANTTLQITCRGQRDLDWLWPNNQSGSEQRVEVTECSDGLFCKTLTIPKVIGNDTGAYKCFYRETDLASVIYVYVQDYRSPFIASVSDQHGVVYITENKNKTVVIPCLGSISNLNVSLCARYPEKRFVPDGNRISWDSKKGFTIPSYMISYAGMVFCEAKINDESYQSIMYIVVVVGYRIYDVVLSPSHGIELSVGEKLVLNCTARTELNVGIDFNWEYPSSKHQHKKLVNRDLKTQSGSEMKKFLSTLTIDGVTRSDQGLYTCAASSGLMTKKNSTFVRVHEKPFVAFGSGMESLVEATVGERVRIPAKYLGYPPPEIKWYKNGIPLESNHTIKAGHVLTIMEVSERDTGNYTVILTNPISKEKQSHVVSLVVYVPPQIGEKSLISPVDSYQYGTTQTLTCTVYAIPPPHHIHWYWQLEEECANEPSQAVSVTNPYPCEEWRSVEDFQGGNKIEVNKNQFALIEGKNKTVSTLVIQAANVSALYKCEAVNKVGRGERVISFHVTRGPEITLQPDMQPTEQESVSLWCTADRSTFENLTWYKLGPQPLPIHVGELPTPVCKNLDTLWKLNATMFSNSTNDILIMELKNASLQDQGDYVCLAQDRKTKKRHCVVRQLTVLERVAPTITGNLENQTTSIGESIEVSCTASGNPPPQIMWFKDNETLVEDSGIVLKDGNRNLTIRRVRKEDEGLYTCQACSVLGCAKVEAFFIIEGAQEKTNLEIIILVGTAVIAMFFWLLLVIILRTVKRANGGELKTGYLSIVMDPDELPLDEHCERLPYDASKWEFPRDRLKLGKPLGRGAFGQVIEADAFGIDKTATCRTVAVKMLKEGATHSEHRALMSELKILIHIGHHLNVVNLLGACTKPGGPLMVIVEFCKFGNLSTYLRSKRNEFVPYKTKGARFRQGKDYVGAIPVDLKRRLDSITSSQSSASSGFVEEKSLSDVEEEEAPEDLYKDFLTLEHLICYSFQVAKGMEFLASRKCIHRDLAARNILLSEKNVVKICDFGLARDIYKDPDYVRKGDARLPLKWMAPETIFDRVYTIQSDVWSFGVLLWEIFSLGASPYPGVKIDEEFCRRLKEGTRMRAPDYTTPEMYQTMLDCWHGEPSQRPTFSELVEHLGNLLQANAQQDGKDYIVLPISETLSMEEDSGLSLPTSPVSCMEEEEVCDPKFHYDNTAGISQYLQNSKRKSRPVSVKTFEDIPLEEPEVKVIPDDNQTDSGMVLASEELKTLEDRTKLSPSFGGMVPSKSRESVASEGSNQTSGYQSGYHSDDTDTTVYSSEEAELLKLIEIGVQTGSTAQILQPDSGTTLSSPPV

inhibition [1] [%]	pIC50 [2]	pIC50 [3]	pKi [3]	Structure (SMILES)
8	< 4.00	4.30	4.60	Cc1oc(-c2ccccc2)nc1COc1cccc(CO)c1
	< 4.00	5.36		O=C(Nc1cccc(C(F)(F)F)c1)Nc1ccccc1Cl
	6.07	6.21		c1ccc2c3c([nH]c2c1)-c1n[nH]cc1CCC3
